# Test results reported in patent US9745288B2, “Compounds and methods for treating cancer by inhibiting the urokinase receptor” (Indiana University Research and Technology Corporation, priority 2011, dated 2017).
# Assays:
# MDA-MB-231 cells [1] = assay: Invasion assay (Boyden chamber, Matrigel); assay type: cell-based, human; details: Homo sapiens
# Method: Invasion and Migration Assays. These assays were performed using BD BioCoat Matrigel Invasion Chamber (Cat. 354480, BD Biosciences, Bedford, Mass.). The undersurface of the inserts was coated with 30 μg/mL of fibronectin (Sigma, F2006) in PBS at 4° C. overnight. The inserts were washed with PBS once. Then, 0.5 mL of serum-free medium was separately added to the upper and lower chambers to equilibrate the Matrigel invasion chambers at 37° C., 5% CO2 for 2 hours. After starvated with serumfree DMEM or 4 hours, subconfluent MDA-MB-231 cells were trypsinized and resuspended in 0.1% FBS DMEM. 5×10^4 cells in 500 μL of 0.1% FBS DMEM containing various compounds or 1.0% DMSO (as control) were added to the upper chambers. 500 μL of 10% FBS DMEM containing the same concentration of the same compound or DMSO were added to the lower chambers. We incubated the invasion chambers for 3 hours at 37° C., 5% CO2. Non-invaded cells were removed from the upper chamber with a cotton swab. The invaded cells were fixed with 100% methanol and then stained with Hematoxylin Stain Harris Modified Method (Fisher, SH30-500D). The filters were washed with water 3 times. Filters were air dried and the invaded cells were counted in ten randomly selected microscopic fields (×200 magnification). The experiment was performed in triplicate per group and shown by mean±SE.
# Whether the two active compounds affected invasion, adhesion and migration in cell culture in a concentration-dependent study was tested (FIGS. 2A, 2B). For invasion, the Transwell (or Boyden) chamber assay was used.^28 The assay uses a chamber with two compartments that are separated by a microporous membrane known as Matrigel consisting of components of the ECM such as collagen, laminin and fibronectin.^28
# Invasive tumor cells degrade the Matrigel and migrate through the membrane to the lower compartment. […] FIGS. 2A and 2B show the effect of representative presently disclosed compounds on MDA-MB-231 metastasis. Percent inhibition of invasion, migration, and adhesion of MDA-MB-231 by compounds that bind to uPAR.
# MDA-MB-231 cells [2] = assay: Migration assay (Boyden chamber without Matrigel); assay type: cell-based; details: Homo sapiens
# Method: Invasion and Migration Assays. These assays were performed using BD BioCoat Matrigel Invasion Chamber (Cat. 354480, BD Biosciences, Bedford, Mass.). The undersurface of the inserts was coated with 30 μg/mL of fibronectin (Sigma, F2006) in PBS at 4° C. overnight. The inserts were washed with PBS once. Then, 0.5 mL of serum-free medium was separately added to the upper and lower chambers to equilibrate the Matrigel invasion chambers at 37° C., 5% CO2 for 2 hours. After starvated with serumfree DMEM or 4 hours, subconfluent MDA-MB-231 cells were trypsinized and resuspended in 0.1% FBS DMEM. 5×10^4 cells in 500 μL of 0.1% FBS DMEM containing various compounds or 1.0% DMSO (as control) were added to the upper chambers. […] We incubated the invasion chambers for 3 hours at 37° C., 5% CO2. Non-invaded cells were removed from the upper chamber with a cotton swab. The invaded cells were fixed with 100% methanol and then stained with Hematoxylin Stain Harris Modified Method (Fisher, SH30-500D). The filters were washed with water 3 times. Filters were air dried and the invaded cells were counted in ten randomly selected microscopic fields (×200 magnification). The experiment was performed in triplicate per group and shown by mean±SE.
# [3] = system: different signaling molecules; assay: Western blot analysis of signaling; assay type: cell-based; details: n=1
# Method: In light of the previously reported role of uPAR in signaling, the effect of IPR-993, IPR-737, IPR-81 and IPR-69 on signaling was studied by Western blot analysis (FIG. 23). A concentration-dependent study was carried out for IPR-737.
# MDA-MB-231 cells [4] = assay: MTT proliferation assay; assay type: cell-based, human; details: read-out: IC50 of cell proliferation (MTT)
# Method: Proliferation Assay. The procedure consisted of culturing cells at 37° C. in 10% FBS-DMEM medium containing various amounts of compound. 5 mM compound stock in 100% DMSO was 1:50 diluted in medium, filtered, and serially diluted in 96-well plate. Then seeded cells were incubated for 3 days. Viable cells were quantified by MTT assay at absorbance of 570 and 630 nm.
# (§1) FIGS. 4A-4D show inhibition of MDA-MB-231 proliferation and mechanism of cell killing. To gain insight into the mechanism by which these compounds are inhibiting growth, a flow cytometry analysis with annexin V-FITC and PI staining was performed. The level of apoptotic cells in MDA-MB-231 was assessed by the percentage of Annexin V-positive/PI-negative cells present after exposure of MDAMB-231 cells to increasing concentration of IPR-69 for 24 h (FIG. 4B). At a concentration of 50 μM, IPR-69 induced significant apoptosis as evidenced by a 51% and 21% increase in apoptotic cells (Annexin V positive/PI-negative) and necrotic cells (Annexin V-positive/PI-positive), respectively. […] At a concentration of 50 μM, 26% of cells were necrotic (Annexin V positive/PI-positive), a 22% increase over control. 46% of cells were apoptotic (Annexin V positive/PInegative), compared with 4% of control.
# MDA-MB-231 cells [5] = assay: Apoptosis assay, flow cytometry with Annexin V-FITC and PI staining; assay type: cell-based, human; details: 50 μM
# Method: Apoptosis Assay. MDA-MB-231 cells were cultured in DMEM medium supplemented with 10% FBS, 100 IU/mL penicillin and 50 μg/mL streptomycin in a humidified atmosphere containing 5% CO2 at 37° C. and grew to 80-90% confluence in P-60 mm plates, then treated with various amounts of compounds or 1% DMSO (as control) for different time points. Collected the supernatants and washed the cells with 1×PBS twice and collected. The cells were detached by using cellstripper (Mediatech Inc, VA), and washed twice with cold 1× PBS and resuspended in 1× binding buffer (Cat. PNN1001, Invitrogen Corporation, Camarillo, Calif.) at a concentration of 1×10^6 cells/mL. Transferred 100 μL of the solution (1×10^5 cells) to a 5 mL culture tube. Added 5 μL of Recombinant Human Annexin V FITC conjugate (Cat. ANNEXINV01, Invitrogen) and 5 μL of propidium iodide solution (Cat. P4864, Sigma-Aldrich, St. Louis, Mo.). Gently vortexed the cells and incubated for 15 min at room (25° C.) in the dark. Added 400 μL of 1× binding buffer to each tube. Analyzed by flow cytometry (FACScan).
# as §1
# CYP2C9 = CYP2C9 (Homo sapiens, UniProt P11712); assay: Fluorescence-based CYP2C9 inhibition assay; details: human
# Method: CYP metabolism was measured using a fluorescence-based assay designed by Cohen et al.,^41 recently implemented by Invitrogen (Carlsbad, Calif.).
# [6] = system: human umbilical vein endothelial cells (HUVEC); assay: Matrigel-based tube formation (angiogenesis) assay; assay type: cell-based; details: HUVEC in Matrigel
# [7] = Homo sapiens, MDA-MB-231, MDA-MB-231
# CYP2C9, sequence (P11712 whole entry): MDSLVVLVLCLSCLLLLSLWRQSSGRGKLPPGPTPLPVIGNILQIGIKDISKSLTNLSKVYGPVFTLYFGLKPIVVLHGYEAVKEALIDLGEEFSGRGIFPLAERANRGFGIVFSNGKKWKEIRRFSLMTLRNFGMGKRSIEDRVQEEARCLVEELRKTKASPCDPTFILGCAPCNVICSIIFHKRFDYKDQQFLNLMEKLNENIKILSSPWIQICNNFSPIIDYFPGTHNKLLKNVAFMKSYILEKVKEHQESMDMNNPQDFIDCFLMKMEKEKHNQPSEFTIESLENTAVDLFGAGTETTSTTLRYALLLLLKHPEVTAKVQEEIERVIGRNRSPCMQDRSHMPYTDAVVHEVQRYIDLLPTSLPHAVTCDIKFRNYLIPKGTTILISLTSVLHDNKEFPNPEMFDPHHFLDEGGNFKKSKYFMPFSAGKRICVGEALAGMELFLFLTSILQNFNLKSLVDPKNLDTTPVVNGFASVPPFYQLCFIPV
SMILES,IC50 (MDA-MB-231 cells [1]),IC50 (MDA-MB-231 cells [2]),effect on signaling molecules [3],IC50 (MDA-MB-231 cells [4]; [7]),IC50 (MDA-MB-231 cells [4]; MDA-MB-231),increase in necrotic cells (Annexin V-positive/PI-positive) (MDA-MB-231 cells [5]),increase in apoptotic cells (Annexin V positive/PI-negative) (MDA-MB-231 cells [5]; 24 h),inhibition of CYP2C9 (CYP2C9),IC50 [6],apoptotic cells (Annexin V positive/PI-negative) (MDA-MB-231 cells [5]; percent of cells),necrotic cells (Annexin V positive/PI-positive) (MDA-MB-231 cells [5]; percent of cells)
"Cc1cc(C)cc(NC(=O)c2cnn(-c3ccc(C(C)C)cc3)c2C2CCNCC2)c1 [IPR-69, N-(3,5-dimethylphenyl)-1-(4-isopropylphenyl)-5-(piperidin-4-yl)-1H-pyrazole-4-carboxamide]",30 µM,40 µM,did not seem to be much of an effect,18 µM,17 µM,21%,51%,little inhibition of CYP2C9,3 µM,–,–
"CN(C)c1ccc(CNCCC(Cc2ccccc2)c2ccc3c(c2)OCO3)cc1 (racemic) [IPR-9, 4-(((3-(benzo[d][1,3]dioxol-5-yl)-4-phenylbutyl)amino)methyl)-N,Ndimethylaniline]",30 µM,–,–,6 µM,–,22%,–,–,3 µM,46%,26%
